According to BigSolDB 2.1:

## O=C(O)CCCC(=O)O
In acetic acid, 292.75 K
  solubility (mole fraction): 0.162
In acetic acid, 297.84 K
  solubility (mole fraction): 0.183
In acetic acid, 301.3 K
  solubility (mole fraction): 0.203
In acetic acid, 304.47 K
  solubility (mole fraction): 0.221
In acetic acid, 307.28 K
  solubility (mole fraction): 0.241
In acetic acid, 310.19 K
  solubility (mole fraction): 0.257
In acetic acid, 313.64 K
  solubility (mole fraction): 0.28
In acetic acid, 316.5 K
  solubility (mole fraction): 0.302
In acetic acid, 319.05 K
  solubility (mole fraction): 0.323
In acetic acid, 321.38 K
  solubility (mole fraction): 0.345
In acetic acid, 325.45 K
  solubility (mole fraction): 0.373
In acetic acid, 327.38 K
  solubility (mole fraction): 0.399
In acetic acid, 332.97 K
  solubility (mole fraction): 0.436
In acetic acid, 335.25 K
  solubility (mole fraction): 0.478
In acetic acid, 338.05 K
  solubility (mole fraction): 0.514
In acetic acid, 341.94 K
  solubility (mole fraction): 0.553
In acetic acid, 344.21 K
  solubility (mole fraction): 0.585
In acetic acid, 347.24 K
  solubility (mole fraction): 0.621
In acetic acid, 349.88 K
  solubility (mole fraction): 0.651
In acetic acid, 353.36 K
  solubility (mole fraction): 0.712
In cyclohexanol, 299.75 K
  solubility (mole fraction): 0.205
In cyclohexanol, 302.7 K
  solubility (mole fraction): 0.219
In cyclohexanol, 305.85 K
  solubility (mole fraction): 0.234
In cyclohexanol, 308.6 K
  solubility (mole fraction): 0.25
In cyclohexanol, 313.19 K
  solubility (mole fraction): 0.271
In cyclohexanol, 316 K
  solubility (mole fraction): 0.288
In cyclohexanol, 318.55 K
  solubility (mole fraction): 0.312
In cyclohexanol, 320.55 K
  solubility (mole fraction): 0.33
In cyclohexanol, 325.15 K
  solubility (mole fraction): 0.366
In cyclohexanol, 326.5 K
  solubility (mole fraction): 0.371
In cyclohexanol, 332.55 K
  solubility (mole fraction): 0.428
In cyclohexanol, 334.9 K
  solubility (mole fraction): 0.455
In cyclohexanol, 336.3 K
  solubility (mole fraction): 0.477
In cyclohexanol, 339.75 K
  solubility (mole fraction): 0.511
In cyclohexanol, 342.15 K
  solubility (mole fraction): 0.545
In cyclohexanol, 344.8 K
  solubility (mole fraction): 0.571
In cyclohexanol, 347.19 K
  solubility (mole fraction): 0.622
In cyclohexanol, 350.05 K
  solubility (mole fraction): 0.66
In cyclohexanol, 351.93 K
  solubility (mole fraction): 0.693
In cyclohexanol, 352.48 K
  solubility (mole fraction): 0.719
In cyclohexanol, 352.95 K
  solubility (mole fraction): 0.748
In cyclohexanone, 294 K
  solubility (mole fraction): 0.161
In cyclohexanone, 299.7 K
  solubility (mole fraction): 0.189
In cyclohexanone, 304.5 K
  solubility (mole fraction): 0.213
In cyclohexanone, 308.05 K
  solubility (mole fraction): 0.241
In cyclohexanone, 311.94 K
  solubility (mole fraction): 0.264
In cyclohexanone, 314.15 K
  solubility (mole fraction): 0.283
In cyclohexanone, 317.54 K
  solubility (mole fraction): 0.307
In cyclohexanone, 320.3 K
  solubility (mole fraction): 0.334
In cyclohexanone, 325.05 K
  solubility (mole fraction): 0.366
In cyclohexanone, 326.95 K
  solubility (mole fraction): 0.392
In cyclohexanone, 330.5 K
  solubility (mole fraction): 0.428
In cyclohexanone, 333.81 K
  solubility (mole fraction): 0.458
In cyclohexanone, 335.23 K
  solubility (mole fraction): 0.478
In cyclohexanone, 338.35 K
  solubility (mole fraction): 0.513
In cyclohexanone, 342.65 K
  solubility (mole fraction): 0.557
In cyclohexanone, 346.8 K
  solubility (mole fraction): 0.598
In cyclohexanone, 347.65 K
  solubility (mole fraction): 0.627
In cyclohexanone, 349.7 K
  solubility (mole fraction): 0.655
In cyclohexanone, 351.5 K
  solubility (mole fraction): 0.679
In cyclohexanone, 353.65 K
  solubility (mole fraction): 0.705
